These compounds were tested against T1, epidermal growth factor receptor (EGFR) (Homo sapiens, UniProt P00533) (assay: […] radiometric HotSpot kinase assay, 10-dose IC50, […] ATP (Reaction Biology)). Conditions: not given.
T1 sequence (P00533 25-1210): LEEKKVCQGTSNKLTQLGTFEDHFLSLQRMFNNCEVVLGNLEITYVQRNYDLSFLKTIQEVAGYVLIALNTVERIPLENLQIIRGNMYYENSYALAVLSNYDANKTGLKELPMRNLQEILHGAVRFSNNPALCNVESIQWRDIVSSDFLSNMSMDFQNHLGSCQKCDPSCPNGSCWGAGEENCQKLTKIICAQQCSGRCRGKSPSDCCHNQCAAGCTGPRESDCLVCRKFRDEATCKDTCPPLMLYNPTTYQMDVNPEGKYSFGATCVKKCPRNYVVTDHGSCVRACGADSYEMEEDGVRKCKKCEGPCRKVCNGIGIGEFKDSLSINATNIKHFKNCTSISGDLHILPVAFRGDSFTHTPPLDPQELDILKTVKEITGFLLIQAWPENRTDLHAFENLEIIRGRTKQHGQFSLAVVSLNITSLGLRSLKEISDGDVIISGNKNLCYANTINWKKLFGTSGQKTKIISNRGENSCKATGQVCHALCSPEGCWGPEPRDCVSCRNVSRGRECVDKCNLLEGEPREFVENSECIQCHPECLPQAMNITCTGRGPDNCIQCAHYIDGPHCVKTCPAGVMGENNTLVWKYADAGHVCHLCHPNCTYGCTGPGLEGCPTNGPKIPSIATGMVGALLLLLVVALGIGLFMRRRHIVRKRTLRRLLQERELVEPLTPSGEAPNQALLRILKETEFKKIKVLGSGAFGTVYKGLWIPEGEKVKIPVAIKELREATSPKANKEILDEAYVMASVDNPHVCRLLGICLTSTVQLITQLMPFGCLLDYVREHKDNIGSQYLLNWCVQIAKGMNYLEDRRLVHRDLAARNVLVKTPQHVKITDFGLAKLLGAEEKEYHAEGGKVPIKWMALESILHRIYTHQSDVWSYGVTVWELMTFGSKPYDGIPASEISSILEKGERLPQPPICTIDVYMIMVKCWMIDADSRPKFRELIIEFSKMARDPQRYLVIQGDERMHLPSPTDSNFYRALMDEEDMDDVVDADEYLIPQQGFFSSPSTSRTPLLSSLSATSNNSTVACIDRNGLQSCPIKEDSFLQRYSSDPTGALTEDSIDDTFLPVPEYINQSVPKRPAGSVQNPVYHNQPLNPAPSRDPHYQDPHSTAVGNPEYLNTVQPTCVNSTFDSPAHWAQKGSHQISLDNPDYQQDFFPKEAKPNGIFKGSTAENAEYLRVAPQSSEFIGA
Type: biochemical
A pIC50 of 7.5 pIC50 was found for `Fc1ccc(Nc2ncnc3ccc(Br)cc23)cc1` [compound 1, Z1192045732] in this work. A pIC50 of 7.4 pIC50 was found for `Nc1c(Cl)cc(Nc2ncnc3ccc(F)cc23)cc1Cl` [compound 2, Z1576525970] in this work. An IC50 of 1400 nM was found for `Nc1c(Cl)cc(Nc2ncnc3c(F)cccc23)cc1Cl` [compound 4, Z1823625743] in this work.

The compounds below were run against T1, epidermal growth factor receptor (EGFR) (assay: biochemical). Conditions: 10 uM ATP; read-out: EGFR pIC50 (converted).
Parameters: 33P radiometric HotSpot filter-binding EGFR kinase assay, 10 uM ATP, Reaction Biology
Method: Compounds that emerged as computational hits were purchased from Enamine (https://www.enaminestore.com/) and resuspended in 100% DMSO at 10 mM concentration. In vitro experiments were performed at Reaction Biology (https://www.reactionbiology.com/) using a radioactive assay based on the transfer of ^33P-labeled phosphate from ATP to the kinase substrate. The HotSpot^SM assay utilizes a miniaturized filter binding, where reaction mixtures are spotted onto filter papers. Then reaction mixture binds the radioisotope-labeled catalytic product. Unreacted phosphate is removed via washing of the filter papers. All reactions were carried out at 10 μM ATP concentrations. Seventeen computational hit molecules were matched with Enamine REAL. […] The twenty three 4-anilinoquinazoline analogs were dissolved in DMSO and sent to Reaction Biology (https://www.reactionbiology.com/) for EGFR enzymatic assay screening. […] The 4-anilinoquinazoline analogs were initially tested in single-dose duplicate mode at a concentration of 1 μM and percent inhibition relative to DMSO control was determined (Table S1).
An IC50 of 31.6 nM was found for `Fc1ccc(Nc2ncnc3ccc(Br)cc23)cc1` [ZINC000000099087] in this work. An IC50 of 39.8 nM was found for `Nc1c(Cl)cc(Nc2ncnc3ccc(F)cc23)cc1Cl` [ZINC000301931984] in this work. An IC50 of 1260 nM was found for `Nc1c(Cl)cc(Nc2ncnc3c(F)cccc23)cc1Cl` [ZINC000302791534] in this work. An IC50 of 200 nM was found for `Cc1ccc(Nc2ncnc3cccc(F)c23)cc1F` [ZINC000480349471] in this work.

These compounds were tested against T1, epidermal growth factor receptor (EGFR) (assay: biochemical). Conditions: 10 uM ATP.
Parameters: 33P radiometric HotSpot filter-binding EGFR kinase assay, 10 uM ATP, Reaction Biology
Method: Compounds that emerged as computational hits were purchased from Enamine (https://www.enaminestore.com/) and resuspended in 100% DMSO at 10 mM concentration. In vitro experiments were performed at Reaction Biology (https://www.reactionbiology.com/) using a radioactive assay based on the transfer of ^33P-labeled phosphate from ATP to the kinase substrate. The HotSpot^SM assay utilizes a miniaturized filter binding, where reaction mixtures are spotted onto filter papers. Then reaction mixture binds the radioisotope-labeled catalytic product. Unreacted phosphate is removed via washing of the filter papers. All reactions were carried out at 10 μM ATP concentrations. Seventeen computational hit molecules were matched with Enamine REAL. All of the predicted active compounds were derivatives of 4-anilinoquinazoline, a chemotype that was well represented in Enamine REAL (Table S1). The predicted active compounds contained a few small substituents on the quinazoline ring (positions 5–8: F, Cl, Br, OCH3) but a wide range of substituents on the 4-anilino group. […] The twenty three 4-anilinoquinazoline analogs were dissolved in DMSO and sent to Reaction Biology (https://www.reactionbiology.com/) for EGFR enzymatic assay screening. Two compounds in the predicted active series were insoluble in DMSO; therefore, biological tests were not performed. The 4-anilinoquinazoline analogs were initially tested in single-dose duplicate mode at a concentration of 1 μM and percent inhibition relative to DMSO control was determined (Table S1).
An inhibition at 1 µM of 96% was found for `Fc1ccc(Nc2ncnc3ccc(Br)cc23)cc1` [ZINC000000099087] in this work. An inhibition at 1 µM of 8% was found for `Fc1ccc2ncnc(Nc3ccc(N4CCCC4)cc3)c2c1` [ZINC000041479925] in this work. An inhibition at 1 µM of 14% was found for `CN(C)C1CCN(c2ccc(Nc3ncnc4ccc(F)cc34)cc2)CC1` [ZINC000089266948] in this work. An inhibition at 1 µM of 12% was found for `Fc1ccc(Nc2ncnc3ccc(F)cc23)cc1` [ZINC000092611293] in this work. An inhibition at 1 µM of 10% was found for `OC1CCN(c2ccc(Nc3ncnc4ccc(Br)cc34)cc2)CC1` [ZINC000112964683] in this work. An inhibition at 1 µM of 12% was found for `CNC(=O)CCOc1ccc(Nc2ncnc3cc(Cl)ccc23)cc1` [ZINC000301175853] in this work. An inhibition at 1 µM of 89% was found for `Nc1c(Cl)cc(Nc2ncnc3ccc(F)cc23)cc1Cl` [ZINC000301931984] in this work. An inhibition at 1 µM of 10% was found for `CN(C)CCc1ccc(Nc2ncnc3ccc(F)cc23)cc1` [ZINC000301950472] in this work. An inhibition at 1 µM of 8% was found for `CN(C)C1CCN(c2ccc(Nc3ncnc4ccc(Br)cc34)cc2)CC1` [ZINC000301979927] in this work. An inhibition at 1 µM of 12% was found for `COCCOc1ccc(Nc2ncnc3cc(F)c(OC)cc23)cc1F` [ZINC000302555896] in this work. An inhibition at 1 µM of 47% was found for `Nc1c(Cl)cc(Nc2ncnc3c(F)cccc23)cc1Cl` [ZINC000302791534] in this work. An inhibition at 1 µM of 12% was found for `CN(C)C1CCN(c2ccc(Nc3ncnc4c(F)cccc34)cc2)CC1` [ZINC000302845052] in this work. An inhibition at 1 µM of 16% was found for `COCCOc1ccc(Nc2ncnc3c(F)cccc23)cc1Cl` [ZINC000302873009] in this work. An inhibition at 1 µM of 4% was found for `OC1CCCCC1Oc1ccc(Nc2ncnc3ccc(F)cc23)cc1` (centres unmarked) [ZINC000440544230] in this work. An inhibition at 1 µM of 83% was found for `Cc1ccc(Nc2ncnc3cccc(F)c23)cc1F` [ZINC000480349471] in this work. An inhibition at 1 µM of 8% was found for `COCCOc1ccc(Nc2ncnc3cccc(F)c23)cc1F` [ZINC000480418233] in this work. An inhibition at 1 µM of 0% was found for `OCCCOc1ccc(Nc2ncnc3cc(Cl)ccc23)cc1` [ZINC000572311742] in this work. An inhibition at 1 µM of 8% was found for `CN(C)CCc1ccc(Nc2ncnc3ccc(Cl)cc23)cc1` [ZINC000594704454] in this work. An inhibition at 1 µM of 14% was found for `CN(C)CC1CCN(c2ccc(Nc3ncnc4ccc(Br)cc34)cc2)CC1` [ZINC000737413605] in this work.
